Assay results: patent publication US20260232572A1, “INJECTABLE COMPOSITION, PHARMACEUTICAL FORMULATION INCLUDING THE SAME, AND METHOD FOR PREPARING THE COMPOSITION” (ONCONIC THERAPEUTICS INC., priority 2023, published 2026)
Read-outs that look alike come from different tables or passages of the source.

What was measured:
[1] = Solubility of citrate of Compound 1 depending on pH; assay type: physicochemical
[2] = Bioavailability on oral administration, citrate of Compound 1 compared to free base; assay type: in vivo; details: orally administered

solubility ([1]; aqueous buffer, pH 3 or higher, particularly pH 3.3 or higher, read-out: solubility): < 1500 µg/mL | solubility ([1]; below pH 3): very excellent solubility | solubility ([1]; pH 3 to 4.7, due to SBE-β-CD): excellent solubility | AUC compared to Compound 1 free base [2]: at least five | Cmax compared to Compound 1 free base [2]: ≥ 11 times
Structure (SMILES): Cc1cccc(C)c1CNc1cc(C(=O)N2CCC2)cn2c(C)c(C)nc12.O=C(O)CC(O)(CC(=O)O)C(=O)O [citrate of Compound 1, azetidin-1-yl{8-[(2,6-dimethylbenzyl)amino]-2,3-dimethylimidazo[1,2-a]pyridin-6-yl}methanone citrate]
time to reach highest blood concentration ([2]; compared to Compound 1 free base): within a short time compared to Compound 1
